Laboratory results published in patent publication US20190017017A1, “USE OF VASCULAR CELLS TO CREATE THE CONVENTIONAL OUTFLOW TRACT” (THE RESEARCH FOUNDATION FOR THE STATE UNIVERSITY OF NEW YORK, priority 2016, published 2019).

Legend:
[1] = tested on: HTM/HMVEC constructs; assay: qPCR and western blot of outflow pathway markers in co-cultured constructs exposed to pharmacologic agents; type: cell-based, human; conditions: qPCR and western blotting; FIGS. 14A-E
Protocol: Total RNA was extracted from samples using an RNeasy Plus Mini kit (Qiagen Inc., Valencia, Calif.). RNA concentrations were determined using a NanoDrop spectrophotometer. 50 ng of RNA per sample was used for each qPCR experiments. qPCR was carried out using TAQMAN RNA-TO-CT™ 1-Step Kit (Applied Biosystems, Carlsbad, Calif.) and performed on an AB StepOnePlus Real Time PCR system (Life Technologies, Carlsbad, Calif.) using primers for αB-crystallin, PECAM-1, fibulin-2, collagen type IV, fibronectin, laminin and GAPDH.
The temperature profile was as follows: 48° C. for 15 min (reverse transcription step), followed by an enzyme activation step of 95° C. for 10 min, 40 cycles of 15 s denaturation at 95° C. and 1 min anneal/extend at 60° C. Relative quantitation data analysis was performed using the comparative quantification method, ΔΔCt, with GAPDH as the endogenous reference. […]
FIGS. 14A-E show gene (left panels, qPCR) and protein (right, western blots) expression patterns of co-cultured HTM/HVEC constructs. HTM-HMVEC and HTM-HSC constructs were contacted with pharmacologic agents that regulate outflow and expression levels of various genes and proteins (α-SMA, collagen IV, fibronectin, myocillin) measured by qPCR and western blotting. […]

[2] = tested on: HTM cells; assay: Outflow facility of porous scaffolds bearing cultured HTM cells (perfusion); type: cell-based, human; conditions: FIG. 15
Description: TM cells and SC cell-like cells co-cultured on a porous scaffold in accordance with aspects of the present disclosure may serve as a system to model conventional outflow tract function, physiology, and pathophysiology. FIG. 13A is a diagrammatic representation of a testing apparatus for performing perfusion-related testing in accordance with aspects of the present disclosure. A syringe pump or other pressure source may feed into a holder for a porous scaffold, with TM and SC cell-like cells co-cultured thereupon, with pressure controlled and measured by a pressure transducer. The pressure across the porous scaffold and cells, and other aspects related to pressure such as through-flow, flow rate, resistance to flow, hydraulic conductivity, and other indicia of conventional outflow tract function may be measured. For example, fluids can be perfused across the co-culture-bearing scaffold and aspects of fluid mechanics measured as an indication of conventional outflow tract function. […] Aspects of membrane pressure, outflow dynamics, and cellular function can similarly be measured under different conditions known or hypothesized to replicate disease states, or lack thereof, or conditions known or believed to prevent, ameliorate, or cure disease or pathological states. In an example, fluid may be perfused across a porous scaffold bearing co-cultured TM and SC cell-like cells and effects of transmembrane pressure, flow rate, through-flow, resistance to flow, hydraulic conductivity, vacuole dynamics, pore formation, or outflow facility of the co-cultured TM cells and SC cell-like cells may be measured. […] Other aspects of cellular physiology or function may similarly be measured, in response or relation to perfusion or otherwise. […]
A perfusion apparatus was used as described in publicly available literature and in accordance with the apparatus illustrated in FIG. 13. […] Vacuole/pore size were measured using the embedded LEO electron microscopy image software. […]

Compound | response (expression of α-SMA, collagen IV, fibronectin, myocillin) of HTM-HMVEC constructs compared with HTM-HSC constructs [1] | effect on outflow facility [2]
C[C@@H](N)[C@H]1CC[C@H](C(=O)Nc2ccncc2)CC1 [Y27632] | responds similar | stimulate
CC(=O)OCC(=O)[C@@]1(O)CC[C@H]2[C@@H]3CCC4=CC(=O)C=C[C@]4(C)[C@H]3C(=O)C[C@@]21C [prednisone acetate] |  | inhibit
TGFβ | responds similar | inhibit
